Measured values from patent publication US20250059198A1, “BRM DEGRADING COMPOUNDS AND ASSOCIATED METHODS OF USE” (Arvinas Operations, Inc., priority 2021, published 2025).

Target: T1, BRM (Homo sapiens, UniProt P51531)
T1 construct: Western Blot Screen of BRM Degradation in SW1573 Cells; endogenous in cells; host or cells: SW1573 cells
Assay: BRM degradation (Dmax and DC50) in SW1573 cells, Western blot screen / In-Cell Western screen
Type: cell-based
Details: overnight (18-20 hours) treatment; for Dmax: read-out: Dmax (%)** (% degraded)
Outline: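 SW1573 cells were treated with compound for 18–20 h (final 0.1% DMSO). BRM was quantified either by Western blot of RIPA lysates or by fixed-cell In-Cell Western (LI-COR, 800/680 nm), each normalised to alpha-tubulin, giving Dmax and DC50.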

T1 sequence (P51531 whole entry): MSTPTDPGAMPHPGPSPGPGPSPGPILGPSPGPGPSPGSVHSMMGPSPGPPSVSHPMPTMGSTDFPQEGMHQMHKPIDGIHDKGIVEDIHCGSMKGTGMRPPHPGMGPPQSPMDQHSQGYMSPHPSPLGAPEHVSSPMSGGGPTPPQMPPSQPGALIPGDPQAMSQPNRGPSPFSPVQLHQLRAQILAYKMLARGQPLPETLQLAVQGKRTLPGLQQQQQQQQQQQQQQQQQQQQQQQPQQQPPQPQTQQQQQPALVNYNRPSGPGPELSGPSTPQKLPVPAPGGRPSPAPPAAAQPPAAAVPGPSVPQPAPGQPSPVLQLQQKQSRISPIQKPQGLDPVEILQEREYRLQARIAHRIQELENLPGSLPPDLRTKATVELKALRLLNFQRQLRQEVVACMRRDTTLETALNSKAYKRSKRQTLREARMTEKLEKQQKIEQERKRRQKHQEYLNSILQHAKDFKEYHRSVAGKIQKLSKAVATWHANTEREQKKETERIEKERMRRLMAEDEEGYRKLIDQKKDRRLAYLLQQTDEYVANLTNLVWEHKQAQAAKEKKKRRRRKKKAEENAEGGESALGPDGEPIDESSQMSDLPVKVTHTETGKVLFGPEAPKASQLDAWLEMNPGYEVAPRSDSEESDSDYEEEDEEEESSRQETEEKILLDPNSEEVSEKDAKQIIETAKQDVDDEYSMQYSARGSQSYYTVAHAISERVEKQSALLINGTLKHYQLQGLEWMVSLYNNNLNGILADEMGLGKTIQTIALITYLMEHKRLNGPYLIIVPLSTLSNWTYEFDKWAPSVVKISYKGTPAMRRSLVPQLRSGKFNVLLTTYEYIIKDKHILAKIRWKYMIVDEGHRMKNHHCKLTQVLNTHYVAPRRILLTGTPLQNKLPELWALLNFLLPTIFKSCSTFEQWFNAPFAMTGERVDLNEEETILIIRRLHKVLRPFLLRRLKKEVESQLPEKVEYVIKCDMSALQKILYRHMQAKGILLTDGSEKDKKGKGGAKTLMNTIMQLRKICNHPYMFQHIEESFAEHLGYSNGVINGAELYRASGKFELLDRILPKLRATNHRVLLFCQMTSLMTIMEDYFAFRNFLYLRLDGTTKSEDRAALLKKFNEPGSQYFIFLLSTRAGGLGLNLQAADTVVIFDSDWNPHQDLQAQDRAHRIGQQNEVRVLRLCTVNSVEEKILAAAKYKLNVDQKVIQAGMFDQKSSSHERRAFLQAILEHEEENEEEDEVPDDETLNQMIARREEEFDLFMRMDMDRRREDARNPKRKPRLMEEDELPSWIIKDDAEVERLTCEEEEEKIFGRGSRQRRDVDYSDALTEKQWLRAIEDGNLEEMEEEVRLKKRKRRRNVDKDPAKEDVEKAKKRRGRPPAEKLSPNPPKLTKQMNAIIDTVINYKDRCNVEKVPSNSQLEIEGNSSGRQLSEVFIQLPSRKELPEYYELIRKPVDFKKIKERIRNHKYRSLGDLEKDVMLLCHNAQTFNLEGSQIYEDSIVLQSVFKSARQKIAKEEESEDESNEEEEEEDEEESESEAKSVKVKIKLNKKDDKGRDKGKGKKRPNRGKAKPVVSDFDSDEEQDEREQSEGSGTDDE

Structure (SMILES)	DC50 [nM]	Dmax [%]
CC(C)[C@@H](C(=O)N1C[C@H](O)C[C@H]1C(=O)N[C@@H](C)c1ccc(C#N)cc1)c1cc(N2CCC(CN3CCC(O[C@H]4C[C@H](Oc5cc(N6C7CCC6CN(c6cc(-c8ccccc8O)nnc6N)CC7)ccn5)C4)CC3)CC2)no1 (stereo partly drawn) [Compound 14, (2S,4R)-N-[(1S)-1-(4-cyanophenyl)ethyl]-4-hydroxy-1-[(2R)-3-methyl-2-{3-[4-({4-[(1r,3r)-3-[(4-{3-[3-amino-6-(2-hydroxyphenyl)pyridazin-4-yl]-3,9-diazabicyclo[4.2.1]nonan-9-yl}pyridin-2-yl)oxy]cyclobutoxy]piperidin-1-yl}methyl)piperidin-1-yl]-1,2-oxazol-5-yl}butanoyl]pyrrolidine-2-carboxamide]	< 2.5	> 75
Cc1ncsc1-c1ccc([C@H](C)NC(=O)[C@@H]2C[C@@H](O)CN2C(=O)[C@@H](c2cc(N3CCC(CN4CCC(O[C@H]5C[C@H](N6CCC([C@H](C)n7cc(-c8cc(-c9ccccc9O)nnc8N)cn7)CC6)C5)CC4)CC3)no2)C(C)C)cc1 [Compound 9, (2S,4R)-4-hydroxy-N-[(1S)-1-[4-(4-methyl-1,3-thiazol-5-yl)phenyl]ethyl]-1-[(2R)-3-methyl-2-{3-[4-({4-[(1r,3r)-3-{4-[(1S)-1-{4-[3-amino-6-(2-hydroxyphenyl)pyridazin-4-yl]-1H-pyrazol-1-yl}ethyl]piperidin-1-yl}cyclobutoxy]piperidin-1-yl}methyl)piperidin-1-yl]-,2-oxazol-5-yl}butanoyl]pyrrolidine-2-carboxamide]	< 2.5	> 75
Cc1ncsc1-c1ccc([C@H](C)NC(=O)[C@@H]2C[C@@H](O)CN2C(=O)[C@@H](c2cc(N3CCC(CN4CCC(O[C@H]5C[C@H](N6CCC(O[C@H]7CCN(c8cc(-c9ccccc9O)nnc8N)C7)CC6)C5)CC4)CC3)no2)C(C)C)cc1 [Compound 77, (2S,4R)-4-hydroxy-N-[(1S)-1-[4-(4-methyl-1,3-thiazol-5-yl)phenyl]ethyl]-1-[(2R)-3-methyl-2-{3-[4-({4-[(1r,3r)-3-(4-{[(3S)-1-[3-amino-6-(2-hydroxyphenyl)pyridazin-4-yl]pyrrolidin-3-yl]oxy}piperidin-1-yl)cyclobutoxy]piperidin-1-yl}methyl)piperidin-1-yl]-1,2-oxazol-5-yl}butanoyl]pyrrolidine-2-carboxamide]	< 2.5	> 75
CC(C)[C@@H](C(=O)N1C[C@H](O)C[C@H]1C(=O)N[C@@H](C)c1ccc(C#N)cc1)c1cc(N2CCC(OCCN3CCC(O[C@H]4C[C@H](Oc5cc(N6C7CCC6CN(c6cc(-c8ccccc8O)nnc6N)C7)ccn5)C4)CC3)CC2)no1 [Compound 153, (2S,4R)-N-[(1S)-1-(4-cyanophenyl)ethyl]-4-hydroxy-1-[(2R)-3-methyl-2-{3-[4-(2-{4-[(1r,3r)-3-[(4-{3-[3-amino-6-(2-hydroxyphenyl)pyridazin-4-yl]-3,8-diazabicyclo[3.2.1]octan-8-yl}pyridin-2-yl)oxy]cyclobutoxy]piperidin-1-yl}ethoxy)piperidin-1-yl]-1,2-oxazol-5-yl}butanoyl]pyrrolidine-2-carboxamide]	< 2.5	> 75
CC(C)[C@@H](C(=O)N1C[C@H](O)C[C@H]1C(=O)N[C@@H](C)c1ccc(-c2ccnn2C)cc1)c1cc(N2CCC(OC3CCN(CC4CC(N5CCC([C@H](C)n6cc(C#Cc7cc(-c8ccccc8O)nnc7N)cn6)CC5)C4)CC3)CC2)no1 (stereo partly drawn) [Compound 112, (2S,4R)-1-[(2R)-2-{3-[4-({1-[(3-{4-[(1S)-1-(4-{2-[3-amino-6-(2-hydroxyphenyl)pyridazin-4-yl]ethynyl}-1H-pyrazol-1-yl)ethyl]piperidin-1-yl}cyclobutyl)methyl]piperidin-4-yl}oxy)piperidin-1-yl]-1,2-oxazol-5-yl}-3-methylbutanoyl]-4-hydroxy-N-[(1S)-1-[4-(1-methyl-1H-pyrazol-5-yl)phenyl]ethyl]pyrrolidine-2-carboxamide]	< 2.5	> 75
Cc1ncsc1-c1ccc([C@H](C)NC(=O)[C@@H]2C[C@@H](O)CN2C(=O)[C@H](c2cc(N3CCC(n4cnc(CN5CCC(O[C@H]6C[C@H](Oc7cc(N8C9CCC8CN(c8cc(-c%10ccccc%10O)nnc8N)C9)ccn7)C6)CC5)c4)CC3)no2)C(C)C)cc1 [Compound 12, (2S,4R)-4-hydroxy-N-[(1S)-1-[4-(4-methyl-1,3-thiazol-5-yl)phenyl]ethyl]-1-[(2S)-3-methyl-2-(3-{4-[4-({4-[(1r,3r)-3-[(4-{3-[3-amino-6-(2-hydroxyphenyl)pyridazin-4-yl]-3,8-diazabicyclo[3.2.1]octan-8-yl}pyridin-2-yl)oxy]cyclobutoxy]piperidin-1-yl}methyl)-1H-imidazol-1-yl]piperidin-1-yl}-1,2-oxazol-5-yl)butanoyl]pyrrolidine-2-carboxamide]	≥ 30	–
CC(C)[C@@H](C(=O)N1C[C@H](O)C[C@H]1C(=O)N[C@@H](C)c1ccc(-c2ccnn2C)cc1)c1cc(N2CCC(CN3CCC(O[C@H]4C[C@H](N5CCC(C(C)n6ncc(C#Cc7cc(-c8ccccc8O)nnc7N)c6F)CC5)C4)CC3)CC2)no1 (stereo partly drawn) [Compound 84, (2S,4R)-4-hydroxy-N-[(1S)-1-[4-(1-methyl-1H-pyrazol-5-yl)phenyl]ethyl]-1-[(2R)-3-methyl-2-{3-[4-({4-[(1r,3r)-3-{4-[1-(4-{2-[3-amino-6-(2-hydroxyphenyl)pyridazin-4-yl]ethynyl}-5-fluoro-1H-pyrazol-1-yl)ethyl]piperidin-1-yl}cyclobutoxy]piperidin-1-yl}methyl)piperidin-1-yl]-1,2-oxazol-5-yl}butanoyl]pyrrolidine-2-carboxamide]	< 2.5	> 75
Cc1ncsc1-c1ccc([C@H](C)NC(=O)[C@@H]2C[C@@H](O)CN2C(=O)[C@@H](c2cc(N3CCC(CN4CCC(O[C@H]5C[C@H](C(=O)N6CCC(N7C8CCC7CN(c7cc(-c9ccccc9O)nnc7N)C8)CC6)C5)CC4)CC3)no2)C(C)C)cc1 [Compound 76, (2S,4R)-4-hydroxy-N-[(1S)-1-[4-(4-methyl-1,3-thiazol-5-yl)phenyl]ethyl]-1-[(2R)-3-methyl-2-{3-[4-({4-[(1r,3r)-3-(4-{3-[3-amino-6-(2-hydroxyphenyl)pyridazin-4-yl]-3,8-diazabicyclo[3.2.1]octan-8-yl}piperidine-1-carbonyl)cyclobutoxy]piperidin-1-yl}methyl)piperidin-1-yl]-1,2-oxazol-5-yl}butanoyl]pyrrolidine-2-carboxamide]	2.5 to 10	> 75
Cc1ncsc1-c1ccc([C@H](C)NC(=O)[C@@H]2C[C@@H](O)CN2C(=O)[C@@H](c2cc(N3C4CCC3CC(CN3CCC(O[C@H]5C[C@H](Oc6cc(N7C8CCC7CN(c7cc(-c9ccccc9O)nnc7N)C8)ccn6)C5)CC3)C4)no2)C(C)C)cc1 (stereo partly drawn) [Compound 21, (2S,4R)-4-hydroxy-N-[(1S)-1-[4-(4-methyl-1,3-thiazol-5-yl)phenyl]ethyl]-1-[(2R)-3-methyl-2-{3-[3-({4-[(1r,3r)-3-[(4-{3-[3-amino-6-(2-hydroxyphenyl)pyridazin-4-yl]-3,8-diazabicyclo[3.2.1]octan-8-yl}pyridin-2-yl)oxy]cyclobutoxy]piperidin-1-yl}methyl)-8-azabicyclo[3.2.1]octan-8-yl]-1,2-oxazol-5-yl}butanoyl]pyrrolidine-2-carboxamide]	< 2.5	> 75
Cc1ncsc1-c1ccc([C@H](C)NC(=O)[C@@H]2C[C@@H](O)CN2C(=O)[C@@H](c2cc(OCCN3CCC(OC(=O)N4CCN(c5cc(-c6ccccc6O)nnc5N)CC4)CC3)no2)C(C)C)cc1 [Compound 64, 1-[2-({5-[(2R)-1-[(2S,4R)-4-hydroxy-2-{[(1S)-1-[4-(4-methyl-1,3-thiazol-5-yl)phenyl]ethyl]carbamoyl}pyrrolidin-1-yl]-3-methyl-1-oxobutan-2-yl]-1,2-oxazol-3-yl}oxy)ethyl]piperidin-4-yl 4-[3-amino-6-(2-hydroxyphenyl)pyridazin-4-yl]piperazine-1-carboxylate]	2.5 to 10	> 75
Cc1nccn1-c1ccc([C@H](C)NC(=O)[C@@H]2C[C@@H](O)CN2C(=O)[C@@H](c2cc(N3CCC(CN4CCC(O[C@H]5C[C@H](N6CCC(C(C)n7cc(C#Cc8cc(-c9ccccc9O)nnc8N)cn7)CC6)C5)CC4)CC3)no2)C(C)C)cc1 (stereo partly drawn) [Compound 91, (2S,4R)-4-hydroxy-N-[(1S)-1-[4-(2-methyl-1H-imidazol-1-yl)phenyl]ethyl]-1-[(2R)-3-methyl-2-{3-[4-({4-[(1r,3r)-3-{4-[1-(4-{2-[3-amino-6-(2-hydroxyphenyl)pyridazin-4-yl]ethynyl}-1H-pyrazol-1-yl)ethyl]piperidin-1-yl}cyclobutoxy]piperidin-1-yl}methyl)piperidin-1-yl]-1,2-oxazol-5-yl}butanoyl]pyrrolidine-2-carboxamide]	< 2.5	> 75
Cc1ncsc1-c1ccc([C@H](C)NC(=O)[C@@H]2C[C@@H](O)CN2C(=O)[C@@H](c2cc(N3CCC(CN4CCC(O)(C#C[C@H]5C[C@H](Oc6cc(N7C8CCC7CN(c7cc(-c9ccccc9O)nnc7N)C8)ccn6)C5)CC4)CC3)no2)C(C)C)cc1 [Compound 19, (2S,4R)-4-hydroxy-1-[(2R)-2-(3-{4-[(4-hydroxy-4-{2-[(1r,3r)-3-[(4-{3-[3-amino-6-(2-hydroxyphenyl)pyridazin-4-yl]-3,8-diazabicyclo[3.2.1]octan-8-yl}pyridin-2-yl)oxy]cyclobutyl]ethynyl}piperidin-1-yl)methyl]piperidin-1-yl}-1,2-oxazol-5-yl)-3-methylbutanoyl]-N-[(1S)-1-[4-(4-methyl-1,3-thiazol-5-yl)phenyl]ethyl]pyrrolidine-2-carboxamide]	< 2.5	> 75
